Data taken from ChEMBL document CHEMBL4011590, “Structure-activity relationship studies on 3,5-dinitrophenyl tetrazoles as antitubercular agents” (Eur J Med Chem, 2017).
Converted amounts (≈) assume the structure as drawn.

Experiments:
[1] = system: Mycobacterium tuberculosis; assay: Antimycobacterial activity against Mycobacterium tuberculosis H37Rv CNCTC My 331/88 after 21 days by micromethod; format: functional; conditions: H37Rv CNCTC My 331/88, 504 h
Staphylococcus aureus [2] = assay: Antibacterial activity against methicillin-resistant Staphylococcus aureus HK5996/08 after 24 hrs by broth microdilution method; format: functional; conditions: HK5996/08, 24 h
Trichosporon asahii [3] = assay: Antifungal activity against Trichosporon asahii 1188 after 48 hrs by broth microdilution method; format: functional; conditions: Trichosporon asahii, 1188, 48 h
Escherichia coli [4] = assay: Antibacterial activity against Escherichia coli ATCC 8739 after 24 hrs by broth microdilution method; format: functional
Staphylococcus aureus [5] = assay: Antibacterial activity against Staphylococcus aureus ATCC 6538 after 48 hrs by broth microdilution method; format: functional; conditions: ATCC 6538, 48 h
Klebsiella pneumoniae [6] = assay: Antibacterial activity against extended spectrum beta-lactamase producing Klebsiella pneumoniae HK14368/08 after 48 hrs by broth microdilution method; format: functional; conditions: HK14368/08, 48 h
Candida albicans [7] = assay: Antifungal activity against Candida albicans ATCC 44859 after 48 hrs by broth microdilution method; format: functional; conditions: ATCC 44859, 48 h
[8] = system: Mycobacterium tuberculosis; assay: Antimycobacterial activity against Mycobacterium tuberculosis H37Rv CNCTC My 331/88 after 14 days by micromethod; format: functional; conditions: H37Rv CNCTC My 331/88, 336 h
Mycobacterium kansasii [9] = assay: Antimycobacterial activity against Mycobacterium kansasii CNCTC My 235/80 after 21 days by micromethod; format: functional; conditions: CNCTC My 235/80, 504 h
Pseudomonas aeruginosa [10] = assay: Antibacterial activity against Pseudomonas aeruginosa ATCC 9027 after 24 hrs by broth microdilution method; format: functional
CHO-K1 = assay: Cytotoxicity against CHOK1 cells after 24 hrs by MTT assay; format: cell-based; conditions: Cricetulus griseus, CHO-K1, 24 h
Lichtheimia corymbifera [11] = assay: Antifungal activity against Absidia corymbifera 272 after 24 hrs by broth microdilution method; format: functional; conditions: Lichtheimia corymbifera, 272, 24 h
Klebsiella pneumoniae [12] = assay: Antibacterial activity against Klebsiella pneumoniae HK11750/08 after 24 hrs by broth microdilution method; format: functional
Candida albicans [13] = assay: Antifungal activity against Candida albicans ATCC 44859 after 24 hrs by broth microdilution method; format: functional; conditions: ATCC 44859, 24 h
Enterococcus sp. [14] = assay: Antibacterial activity against Enterococcus sp. HK14365/08 after 24 hrs by broth microdilution method; format: functional; conditions: HK14365/08, 24 h
Enterococcus sp. [15] = assay: Antibacterial activity against Enterococcus sp. HK14365/08 after 48 hrs by broth microdilution method; format: functional; conditions: HK14365/08, 48 h
Nakaseomyces glabratus [16] = assay: Antifungal activity against Candida glabrata 20/I after 48 hrs by broth microdilution method; format: functional
Candida tropicalis [17] = assay: Antifungal activity against Candida tropicalis 156 after 48 hrs by broth microdilution method; format: functional; conditions: Candida tropicalis, 156, 48 h
[18] = system: Staphylococcus epidermidis; assay: Antibacterial activity against Staphylococcus epidermidis HK6966/08 after 48 hrs by broth microdilution method; format: functional; conditions: HK6966/08, 48 h
[19] = system: Trichophyton mentagrophytes; assay: Antifungal activity against Trichophyton mentagrophytes 445 after 120 hrs by broth microdilution method; format: functional; conditions: Trichophyton mentagrophytes, 445, 120 h
Mycobacterium avium [20] = assay: Antimycobacterial activity against Mycobacterium avium CNCTC My 330/80 after 21 days by micromethod; format: functional; conditions: CNCTC My 330/80, 504 h
Klebsiella pneumoniae [21] = assay: Antibacterial activity against Klebsiella pneumoniae HK11750/08 after 48 hrs by broth microdilution method; format: functional; conditions: HK11750/08, 48 h
Aspergillus fumigatus [22] = assay: Antifungal activity against Aspergillus fumigatus 231 after 48 hrs by broth microdilution method; format: functional; conditions: Aspergillus fumigatus, 231, 48 h
[23] = system: Staphylococcus epidermidis; assay: Antibacterial activity against Staphylococcus epidermidis HK6966/08 after 24 hrs by broth microdilution method; format: functional; conditions: HK6966/08, 24 h
Pichia kudriavzevii [24] = assay: Antifungal activity against Candida krusei E28 after 24 hrs by broth microdilution method; format: functional; conditions: E28, 24 h
Pichia kudriavzevii [25] = assay: Antifungal activity against Candida krusei E28 after 48 hrs by broth microdilution method; format: functional; conditions: E28, 48 h
Mycobacterium avium [26] = assay: Antimycobacterial activity against Mycobacterium avium CNCTC My 330/80 after 14 days by micromethod; format: functional; conditions: CNCTC My 330/80, 336 h
Mycobacterium kansasii [27] = assay: Antimycobacterial activity against Mycobacterium kansasii isolate 6509/96 after 7 days by micromethod; format: functional; conditions: isolate 6509/96, 168 h
Pseudomonas aeruginosa [28] = assay: Antibacterial activity against Pseudomonas aeruginosa ATCC 9027 after 48 hrs by broth microdilution method; format: functional; conditions: ATCC 9027, 48 h
Aspergillus fumigatus [29] = assay: Antifungal activity against Aspergillus fumigatus 231 after 24 hrs by broth microdilution method; format: functional; conditions: Aspergillus fumigatus, 231, 24 h
Mycobacterium kansasii [30] = assay: Antimycobacterial activity against Mycobacterium kansasii isolate 6509/96 after 21 days by micromethod; format: functional; conditions: isolate 6509/96, 504 h
Mycobacterium kansasii [31] = assay: Antimycobacterial activity against Mycobacterium kansasii isolate 6509/96 after 14 days by micromethod; format: functional; conditions: isolate 6509/96, 336 h
Nakaseomyces glabratus [32] = assay: Antifungal activity against Candida glabrata 20/I after 24 hrs by broth microdilution method; format: functional
Mycobacterium kansasii [33] = assay: Antimycobacterial activity against Mycobacterium kansasii CNCTC My 235/80 after 7 days by micromethod; format: functional; conditions: CNCTC My 235/80, 168 h
Staphylococcus aureus [34] = assay: Antibacterial activity against Staphylococcus aureus ATCC 6538 after 24 hrs by broth microdilution method; format: functional; conditions: ATCC 6538, 24 h
Mycobacterium kansasii [35] = assay: Antimycobacterial activity against Mycobacterium kansasii CNCTC My 235/80 after 14 days by micromethod; format: functional; conditions: CNCTC My 235/80, 336 h
Candida tropicalis [36] = assay: Antifungal activity against Candida tropicalis 156 after 24 hrs by broth microdilution method; format: functional; conditions: Candida tropicalis, 156, 24 h
[37] = system: Trichophyton mentagrophytes; assay: Antifungal activity against Trichophyton mentagrophytes 445 after 72 hrs by broth microdilution method; format: functional; conditions: Trichophyton mentagrophytes, 445, 72 h
Staphylococcus aureus [38] = assay: Antibacterial activity against methicillin-resistant Staphylococcus aureus HK5996/08 after 48 hrs by broth microdilution method; format: functional; conditions: HK5996/08, 48 h
Klebsiella pneumoniae [39] = assay: Antibacterial activity against extended spectrum beta-lactamase producing Klebsiella pneumoniae HK14368/08 after 24 hrs by broth microdilution method; format: functional
Lichtheimia corymbifera [40] = assay: Antifungal activity against Absidia corymbifera 272 after 48 hrs by broth microdilution method; format: functional; conditions: Lichtheimia corymbifera, 272, 48 h
Escherichia coli [41] = assay: Antibacterial activity against Escherichia coli ATCC 8739 after 48 hrs by broth microdilution method; format: functional; conditions: ATCC 8739, 48 h
Trichosporon asahii [42] = assay: Antifungal activity against Trichosporon asahii 1188 after 24 hrs by broth microdilution method; format: functional; conditions: Trichosporon asahii, 1188, 24 h

Compound: O=[N+]([O-])c1cc(-c2nnn(Cc3ccc(F)cc3)n2)cc([N+](=O)[O-])c1
- MIC99 [1]: 0.5 µM (≈ 0.172 µg/mL)
- MIC (Staphylococcus aureus [2]): > 500 µM
- MIC (Trichosporon asahii [3]): > 500 µM
- MIC (Escherichia coli [4]; ATCC 8739, 24 h): > 500 µM
- MIC (Staphylococcus aureus [5]): > 500 µM
- MIC (Klebsiella pneumoniae [6]): > 500 µM
- MIC (Candida albicans [7]): > 500 µM
- MIC99 [8]: 0.25 µM (≈ 0.0861 µg/mL)
- MIC99 (Mycobacterium kansasii [9]): 2 µM (≈ 0.689 µg/mL)
- MIC (Pseudomonas aeruginosa [10]; ATCC 9027, 24 h): > 500 µM
- IC50 (CHO-K1): 35 µM
- MIC (Lichtheimia corymbifera [11]): > 500 µM
- MIC (Klebsiella pneumoniae [12]; HK11750/08, 24 h): > 500 µM
- MIC (Candida albicans [13]): > 500 µM
- MIC (Enterococcus sp. [14]): > 500 µM
- MIC (Enterococcus sp. [15]): > 500 µM
- MIC (Nakaseomyces glabratus [16]): > 500 µM
- MIC (Candida tropicalis [17]): > 500 µM
- MIC [18]: > 500 µM
- MIC [19]: > 500 µM
- MIC99 (Mycobacterium avium [20]): 8 µM (≈ 2.75 µg/mL)
- MIC (Klebsiella pneumoniae [21]): > 500 µM
- MIC (Aspergillus fumigatus [22]): > 500 µM
- MIC [23]: > 500 µM
- MIC (Pichia kudriavzevii [24]): > 500 µM
- MIC (Pichia kudriavzevii [25]): > 500 µM
- MIC99 (Mycobacterium avium [26]): 8 µM (≈ 2.75 µg/mL)
- MIC99 (Mycobacterium kansasii [27]): 1 µM (≈ 0.344 µg/mL)
- MIC (Pseudomonas aeruginosa [28]): > 500 µM
- MIC (Aspergillus fumigatus [29]): > 500 µM
- MIC99 (Mycobacterium kansasii [30]): 4 µM (≈ 1.38 µg/mL)
- MIC99 (Mycobacterium kansasii [31]): 2 µM (≈ 0.689 µg/mL)
- MIC (Nakaseomyces glabratus [32]): > 500 µM
- MIC99 (Mycobacterium kansasii [33]): 1 µM (≈ 0.344 µg/mL)
- MIC (Staphylococcus aureus [34]): > 500 µM
- MIC99 (Mycobacterium kansasii [35]): 2 µM (≈ 0.689 µg/mL)
- MIC (Candida tropicalis [36]): > 500 µM
- MIC [37]: > 500 µM
- MIC (Staphylococcus aureus [38]): > 500 µM
- MIC (Klebsiella pneumoniae [39]; HK14368/08, 24 h): > 500 µM
- MIC (Lichtheimia corymbifera [40]): > 500 µM
- MIC (Escherichia coli [41]): > 500 µM
- MIC (Trichosporon asahii [42]): > 500 µM

Compound: GENTAMICIN
- MIC (Escherichia coli [4]): 0.26 µM
- MIC (Pseudomonas aeruginosa [10]): 1 µM
- MIC (Klebsiella pneumoniae [12]): 0.26 µM
- MIC (Klebsiella pneumoniae [39]): 0.26 µM

Compound: O=[N+]([O-])c1cc(-c2nnn(CSc3nnnn3Cc3ccccc3)n2)cc([N+](=O)[O-])c1
- MIC99 [1]: 0.125 µM (≈ 0.0551 µg/mL)
- MIC (Staphylococcus aureus [2]): > 125 µM
- MIC (Trichosporon asahii [3]): > 125 µM
- MIC (Escherichia coli [4]; ATCC 8739, 24 h): > 125 µM
- MIC (Staphylococcus aureus [5]): > 125 µM
- MIC (Klebsiella pneumoniae [6]): > 125 µM
- MIC (Candida albicans [7]): > 125 µM
- MIC99 [8]: 0.125 µM (≈ 0.0551 µg/mL)
- MIC99 (Mycobacterium kansasii [9]): 4 µM (≈ 1.76 µg/mL)
- MIC (Pseudomonas aeruginosa [10]; ATCC 9027, 24 h): > 125 µM
- MIC (Lichtheimia corymbifera [11]): > 125 µM
- MIC (Klebsiella pneumoniae [12]; HK11750/08, 24 h): > 125 µM
- MIC (Candida albicans [13]): > 125 µM
- MIC (Enterococcus sp. [14]): > 125 µM
- MIC (Enterococcus sp. [15]): > 125 µM
- MIC (Nakaseomyces glabratus [16]): > 125 µM
- MIC (Candida tropicalis [17]): > 125 µM
- MIC [18]: > 125 µM
- MIC [19]: > 125 µM
- MIC99 (Mycobacterium avium [20]): 32 µM (≈ 14.1 µg/mL)
- MIC (Klebsiella pneumoniae [21]): > 125 µM
- MIC (Aspergillus fumigatus [22]): > 125 µM
- MIC [23]: > 125 µM
- MIC (Pichia kudriavzevii [24]): > 125 µM
- MIC (Pichia kudriavzevii [25]): > 125 µM
- MIC99 (Mycobacterium avium [26]): 16 µM (≈ 7.05 µg/mL)
- MIC99 (Mycobacterium kansasii [27]): 2 µM (≈ 0.881 µg/mL)
- MIC (Pseudomonas aeruginosa [28]): > 125 µM
- MIC (Aspergillus fumigatus [29]): > 125 µM
- MIC99 (Mycobacterium kansasii [30]): 4 µM (≈ 1.76 µg/mL)
- MIC99 (Mycobacterium kansasii [31]): 4 µM (≈ 1.76 µg/mL)
- MIC (Nakaseomyces glabratus [32]): > 125 µM
- MIC99 (Mycobacterium kansasii [33]): 2 µM (≈ 0.881 µg/mL)
- MIC (Staphylococcus aureus [34]): > 125 µM
- MIC99 (Mycobacterium kansasii [35]): 4 µM (≈ 1.76 µg/mL)
- MIC (Candida tropicalis [36]): > 125 µM
- MIC [37]: > 125 µM
- MIC (Staphylococcus aureus [38]): > 125 µM
- MIC (Klebsiella pneumoniae [39]; HK14368/08, 24 h): > 125 µM
- MIC (Lichtheimia corymbifera [40]): > 125 µM
- MIC (Escherichia coli [41]): > 125 µM
- MIC (Trichosporon asahii [42]): > 125 µM

Compound: OC(Cn1cncn1)(Cn1cncn1)c1ccc(F)cc1F [FLUCONAZOLE]
- MIC (Lichtheimia corymbifera [11]): > 500 µM
- MIC (Candida albicans [13]): 0.82 µM (≈ 0.251 µg/mL)
- MIC (Pichia kudriavzevii [24]): 105 µM (≈ 32.2 µg/mL)
- MIC (Aspergillus fumigatus [29]): > 500 µM
- MIC (Candida tropicalis [36]): 1.6 µM (≈ 0.49 µg/mL)
- MIC [37]: 105 µM (≈ 32.2 µg/mL)
- MIC (Trichosporon asahii [42]): 210 µM (≈ 64.3 µg/mL)
